Values of other authors as cited in patent US20050003341A1, “Drug discovery assays based on the biology of atherosclerosis, cancer, and alopecia” (priority 2003, published 2005).
Like-named read-outs stand apart in the source and are kept apart here.

Tests used:
TF mRNA = details: obese mice, 10 to 20 weeks of age
AR mRNA [1] = details: LNCaP cells (Lin 2001)
ACE [2] = details: zofenopril 0.05 or 1, captopril 5, enalapril 0.5 mg/kg/day
ACE [3] = details: 5 mg/day vs placebo, 4 years
ACE [4] = system: ACE
ACE [5] = system: ACE; remark: listed apart in the source
ACE [6] = details: 5 or 10 mg/day vs placebo, 4 years
[7] = system: Moloney murine leukemia virus (MMuLV); Rous sarcoma virus (RSV); details: chick embryo fibroblasts
TF antigen = details: starting on day 3, significant on day 28
papilla cells = details: 14 days; testosterone 345 nM, DHT 345 mM as printed
TF [8] = details: cultured monocytes
TF [9] = details: mononuclear leukocytes exposed to endotoxin
ACE [10] = details: after 6 weeks
AR mRNA [11] = details: 50 μg/ml, 4 hours

## CCOC(=O)[C@H](CCc1ccccc1)N[C@H]1CS[C@H](c2cccs2)CN(CC(=O)O)C1=O [temocapril]
TF mRNA
  increase in TF mRNA: attenuated

## IL-6: interleukin 6
AR mRNA [1]
  AR mRNA: decreased
ERK; LNCaP cells (Chen T 1999)
  ERK phosphorylation: increased

## CCOC(=O)[C@H](CCc1ccccc1)N[C@@H](C)C(=O)N1CCC[C@H]1C(=O)O [enalapril]
ACE [2]
  total lesion area compared to placebo: no significant decrease
ACE [3]
  changes in mean absolute diameter, minimum absolute diameter, percent diameter stenosis: no significant difference

## CCOC(=O)[C@H](CCc1ccccc1)N[C@@H](C)C(=O)N1[C@H](C(=O)O)C[C@@H]2CCC[C@@H]21 [ramipril]
ACE [4]; 10 mg/day, 4.5 years, placebo 8.1%
  rate of death from cardiovascular causes: 6.1%
ACE [4]; placebo 1.3%
  rate of cardiac arrest: 0.8%
ACE [4]; placebo 4.9%
  rate of stroke: 3.4%
ACE [4]; placebo 7.6%
  rate of complications related to diabetes: 6.4%
ACE [4]; placebo 11.6%
  rate of heart failure: 9.1%
ACE [4]; placebo 12.2%
  rate of death from any cause: 10.4%
ACE [4]; placebo 12.3%
  rate of myocardial infarction: 9.9%
ACE [4]; placebo 18.8%
  rate of revascularization procedures: 16.3%
ACE [4]; vs placebo
  RR, cardiac arrest: 0.62
  RR, complications related to diabetes: 0.84
  RR, death from any cause: 0.84
  RR, death from cardiovascular causes: 0.74
  RR, heart failure: 0.77
  RR, myocardial infarction: 0.80
  RR, revascularization procedures: 0.85
  RR, stroke: 0.68
ACE [5]; 10 mg/day, placebo 0.0217±0.0027, p=0.0033
  progression slope of the mean maximum carotid intimal medial thickness (IMT): 0.0137±0.0024 mm/year
ACE [5]; at 4.5 years
  decrease in progression of carotid intima media thickness: 0.008 mm per year
ACE [6]
  changes in thickness of the common carotid artery wall, or carotid plaque height: no significant difference

## C/C=C/C/C=C/CCC(=O)[C@H]1O[C@H]1C(N)=O [cerulenin]
[7]
  Rous sarcoma virus (RSV) production: inhibited

## CCCCc1nc(Cl)c(CO)n1Cc1ccc(-c2ccccc2-c2nn[nH]n2)cc1 [losartan]
TF antigen
  effect on plasma TF antigen levels: negative effect

## C[C@]12CC[C@H]3[C@@H](CCC4=CC(=O)CC[C@@]43C)[C@@H]1CC[C@@H]2O [Testosterone, testosterone]
Papilla cells
  papilla cell proliferation: significantly decreased
ERK; a variety of cells, cited studies
  ERK phosphorylation: increase

## C[C@H](CS)C(=O)N1CCC[C@H]1C(=O)O [captopril]
ACE [2]
  total lesion area compared to placebo: significantly decreased
TF [8]
  TF antigen and mRNA: decreased
TF [9]
  increase in TF mRNA: inhibited
hamsters; controls 130±5
  cell size of macrophage derived foam cells: did not change
hamsters; controls 376±6
  heart rate: 348+6 beats/min
hamsters; p=0.092 pravastatin, p=0.056 captopril
  decrease in fatty streak area: 35%
ACE [10]; week 4: 87±9, p<0.05
  number of subendothelial macrophage derived foam cells: 52±9 cell/mm^2
ACE [10]; week 4: 113±8, p<0.05
  average size of a foam cell: 89±5 μm^2
ACE [10]; week 4: 125±18, p<0.05
  area of fatty streak: 55±12 μm2×1,000
ACE [10]; week 4: 144±27, not significant
  area of extracellular lipid particles: 157±36 μm2×1,000

## C[C@@H]1C[C@@H]([C@H](O)CC2CC(=O)NC(=O)C2)C(=O)[C@@H](C)C1 [cycloheximide]
AR mRNA [11]
  increase in AR mRNA: 1.7 ± 0.4 fold
